Legend:
Assay type in all cases: in vivo
[1] = tested on: Echinochloa crus-galli (ECHCG); assay: Glasshouse herbicide test, pre-emergence; settings: PRE Application; 500 g/h; evaluated after 13 days
Procedure: (§1) Seeds of a variety of test species are shown in standard soil in pots (Lolium perenne (LOLPE), Amaranthus retoflexus (AMARE), Abutilon theophrasti (ABUTH), Setaria faberi (SETFA), Echinochloa crus-galli (ECHCG), Ipomoea hederacea (IPOHE)). After cultivation for one day (pre-emergence) or after 8 days cultivation (post-emergence) under controlled conditions in a glasshouse (at 24/16° C., day/night; 14 hours light; 65% humidity), the plants are sprayed with an aqueous spray solution derived from the formulation of the technical active ingredient in acetone/water (50:50) solution containing 0.5% Tween 20 (polyoxyethelyene sorbitan monolaurate, CAS RN 9005-64-5). Compounds are applied at 500 g/h. The test plants are then grown in a glasshouse under controlled conditions in a glasshouse (at 24/16° C., day/night; 14 hours light; 65% humidity) and watered twice daily. After 13 days for pre and post-emergence, the test is evaluated for the percentage damage caused to the plant. The biological activities are shown in the following table on a five point scale (5=80-100%; 4=60-79%; 3=40-59%; 2=20-39%; 1=0-19%).

Setaria faberi (SETFA) [2] = assay: Glasshouse herbicide test, pre-emergence; settings: PRE Application; 500 g/h; evaluated after 13 days
Procedure: as §1

[3] = tested on: Ipomoea hederacea (IPOHE); assay: Glasshouse herbicide test, pre-emergence; settings: PRE Application; 500 g/h; evaluated after 13 days
Procedure: as §1

[4] = tested on: Amaranthus retoflexus (AMARE); assay: Glasshouse herbicide test, pre-emergence; settings: PRE Application; 500 g/h; evaluated after 13 days
Procedure: as §1

[5] = tested on: Abutilon theophrasti (ABUTH); assay: Glasshouse herbicide test, pre-emergence; settings: PRE Application; 500 g/h; evaluated after 13 days
Procedure: as §1

[6] = tested on: Echinochloa crus-galli (ECHCG); assay: Glasshouse herbicide test, post-emergence; settings: POST Application; 500 g/h; evaluated after 13 days
Procedure: as §1

Setaria faberi (SETFA) [7] = assay: Glasshouse herbicide test, post-emergence; settings: POST Application; 500 g/h; evaluated after 13 days
Procedure: as §1

[8] = tested on: Ipomoea hederacea (IPOHE); assay: Glasshouse herbicide test, post-emergence; settings: POST Application; 500 g/h; evaluated after 13 days
Procedure: as §1

[9] = tested on: Amaranthus retoflexus (AMARE); assay: Glasshouse herbicide test, post-emergence; settings: POST Application; 500 g/h; evaluated after 13 days
Procedure: as §1

[10] = tested on: Abutilon theophrasti (ABUTH); assay: Glasshouse herbicide test, post-emergence; settings: POST Application; 500 g/h; evaluated after 13 days
Procedure: as §1

| Compound | percentage damage caused to the plant, five point scale, ECHCG [1] | percentage damage caused to the plant, five point scale, SETFA (Setaria faberi (SETFA) [2]) | percentage damage caused to the plant, five point scale, IPOHE [3] | percentage damage caused to the plant, five point scale, AMARE [4] | percentage damage caused to the plant, five point scale, ABUTH [5] | percentage damage caused to the plant, five point scale, ECHCG [6] | percentage damage caused to the plant, five point scale, SETFA (Setaria faberi (SETFA) [7]) | percentage damage caused to the plant, five point scale, IPOHE [8] | percentage damage caused to the plant, five point scale, AMARE [9] | percentage damage caused to the plant, five point scale, ABUTH [10] |
| --- | --- | --- | --- | --- | --- | --- | --- | --- | --- | --- |
| CCn1nnnc1NC(=O)c1ccc(S(C)(=O)=O)c(N(C)OC)c1Cl [Compound 1.044] | 5 (5=80-100%) | 5 (5=80-100%) | 5 (5=80-100%) | 5 (5=80-100%) | 5 (5=80-100%) | 5 (5=80-100%) | 5 (5=80-100%) | 5 (5=80-100%) | 5 (5=80-100%) | 5 (5=80-100%) |
| CCCn1nnnc1NC(=O)c1ccc(S(C)(=O)=O)c(N(C)OC)c1Cl [Compound 1.045] | 5 (5=80-100%) | 5 (5=80-100%) | 5 (5=80-100%) | 5 (5=80-100%) | 5 (5=80-100%) | 5 (5=80-100%) | 5 (5=80-100%) | 5 (5=80-100%) | 5 (5=80-100%) | 5 (5=80-100%) |
| CON(C(=O)C(C)C)c1c(C(F)(F)F)ccc(C(=O)Nc2nnnn2C)c1Cl [Compound 1.049] | 5 (5=80-100%) | 5 (5=80-100%) | 5 (5=80-100%) | 5 (5=80-100%) | 5 (5=80-100%) | 5 (5=80-100%) | 5 (5=80-100%) | 5 (5=80-100%) | 5 (5=80-100%) | 5 (5=80-100%) |
| CCC(=O)N(OC)c1c(C(F)(F)F)ccc(C(=O)Nc2nnnn2C)c1Cl [Compound 1.050] | 5 (5=80-100%) | 5 (5=80-100%) | 4 (4=60-79%) | 5 (5=80-100%) | 5 (5=80-100%) | 5 (5=80-100%) | 5 (5=80-100%) | 5 (5=80-100%) | 5 (5=80-100%) | 5 (5=80-100%) |
| CCCS(=O)(=O)c1ccc(C(=O)Nc2nnnn2C)c(Cl)c1N(C)OC [Compound 1.054] | 5 (5=80-100%) | 5 (5=80-100%) | 5 (5=80-100%) | 5 (5=80-100%) | 5 (5=80-100%) | 5 (5=80-100%) | 5 (5=80-100%) | 5 (5=80-100%) | 5 (5=80-100%) | 5 (5=80-100%) |
| CCON(C)c1c(S(C)(=O)=O)ccc(C(=O)Nc2nnnn2CC)c1Cl [Compound 1.055] | 5 (5=80-100%) | 5 (5=80-100%) | 5 (5=80-100%) | 5 (5=80-100%) | 5 (5=80-100%) | 5 (5=80-100%) | 5 (5=80-100%) | 5 (5=80-100%) | 5 (5=80-100%) | 5 (5=80-100%) |

From patent US11851411B2, “Herbicidal compounds” (SYNGENTA CROP PROTECTION AG, priority 2018, dated 2023)
